The source of these data is ChEMBL document CHEMBL6078615, “Sesquilignans: Current research and potential prospective” (Eur J Med Chem, 2024).

Usually IC50 stands for the point on the concentration scale where inhibition reaches its midpoint.

What all share (type): functional, cell-based
The test system of test [1] is RAW264.7. Briefly: Antiinflammatory activity in LPS-induced mouse RAW264.7 cells assessed as inhibition of TNFalpha secretion preincubated for 1 hr followed by LPS addition measured for 24 hrs by ELISA method.
Test [2] relates to RAW264.7. As to the kind of experiment: Antiinflammatory activity in LPS-induced mouse RAW264.7 cells assessed as inhibition of IL-1beta secretion preincubated for 1 hr followed by LPS addition for 24 hrs by ELISA method. In general terms: ELISA stands for enzyme-linked immunosorbent assay.
Test [3] concerns RAW264.7. Briefly: Antiinflammatory activity in LPS-induced mouse RAW264.7 cells assessed as inhibition of IL-6 secretion preincubated for 1 hr followed by LPS addition for 24 hrs by ELISA method.

Each structure is given as a SMILES string.

On to `COc1cc([C@H](O)[C@@H](CO)Oc2c(OC)cc([C@H]3OC[C@H]4[C@@H]3CO[C@@H]4c3cc(OC)c(O)c(OC)c3)cc2OC)ccc1O`, for which the IC50 was found to be 50.9 µM in the test with RAW264.7 [1], 10.9 µM in the test with RAW264.7 [2] and 2.4 µM with RAW264.7 [3].
